# Experimental data published in patent US12544391B2, “CD73 inhibitors” (ORIC Pharmaceuticals, Inc., priority 2019, dated 2026).
# Target: T1, CD73 (Homo sapiens, UniProt P21589)
# T1 sequence (P21589 27-549): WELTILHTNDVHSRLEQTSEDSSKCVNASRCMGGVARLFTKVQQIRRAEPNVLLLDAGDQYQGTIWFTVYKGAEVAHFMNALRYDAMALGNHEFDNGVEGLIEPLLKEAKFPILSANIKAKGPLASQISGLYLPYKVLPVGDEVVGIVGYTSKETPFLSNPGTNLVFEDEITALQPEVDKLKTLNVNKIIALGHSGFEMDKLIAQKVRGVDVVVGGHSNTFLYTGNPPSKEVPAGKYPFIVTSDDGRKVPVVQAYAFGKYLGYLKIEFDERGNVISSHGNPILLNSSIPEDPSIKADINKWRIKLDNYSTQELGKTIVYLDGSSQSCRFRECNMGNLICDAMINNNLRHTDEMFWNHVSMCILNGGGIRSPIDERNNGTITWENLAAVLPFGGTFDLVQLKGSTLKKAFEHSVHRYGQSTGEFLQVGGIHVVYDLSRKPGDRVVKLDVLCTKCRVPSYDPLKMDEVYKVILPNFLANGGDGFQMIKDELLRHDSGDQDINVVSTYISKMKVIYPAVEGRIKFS
# Test: CD73 biochemical assay, Malachite Green detection of AMP hydrolysis
# Details: CD73 320 pM, AMP 15 μM, Malachite Green readout
# Method: Assay Reaction Conditions
# • Assay Volume: 70 μl • Reaction Volume: 50 μl • CD73: 0.3208 nM • AMP: 15 μM • Assay Buffer: 2 5 mM Tris-HCL, pH 7.4, 0.01% Brij-35, 0.01% BSA, 5 mM MgCl2 Assay Procedure:
# A clear 384 well plate was used in this assay.
# Made dose titration of testing compounds in assay buffer, 10 points ½ log titrations in duplicates starting at 100 μM. Total volume for each well was 25 μl, with CD73 then added to each well for a final concentration of 320 pM. The solution was then incubated at RT for 15 min. 25 μl of AMP was added to each well for a final concentration of 15 μM, and then incubated at rt for 10 min. 10 μl of Malachite Green Reagent A was then added and allowed to incubate at rt for 10 min. 10 μl of Malachite Green Reagent B was then added and allowed to incubate at rt for 45 min. The absorbance for each sample was read on an Envision plate reader using excitation filter: Cy5 […].
# The ability of the compounds disclosed herein to inhibit CD73 activity was quantified and the respective IC50 values were determined. Table 2 provides the biochemical IC50 values of compounds disclosed herein.
row,SMILES,IC50 [nM]
1,"C[C@@]1(c2ccc3c(NC4CCCC4)nc(Cl)nn23)O[C@H](COC(CO)(COCc2nnn[nH]2)P(=O)(O)O)[C@@H](O)[C@H]1O (stereo partly drawn) [Example 29, (1-((1H-tetrazol-5-yl)methoxy)-2-(((2R,3S,4R,5S)-5-(2-chloro-4-(cyclopentylamino)pyrrolo[2,1-f][1,2,4]triazin-7-yl)-3,4-dihydroxy-5-methyltetrahydrofuran-2-yl)methoxy)-3-hydroxypropan-2-yl)phosphonic acid]",100 to 1000
2,"COCC(COC)(OC[C@H]1O[C@@H](c2ccc3c(NC4CCCC4)nc(Cl)nn23)[C@H](O)[C@@H]1O)P(=O)(O)O [Example 30, (2-(((2R,3S,4R,5S)-5-(2-chloro-4-(cyclopentylamino)pyrrolo[2,1-f][1,2,4]triazin-7-yl)-3,4-dihydroxytetrahydrofuran-2-yl)methoxy)-1,3-dimethoxypropan-2-yl)phosphonic acid]",≤ 0.5
3,"COC[C@@](C)(OC[C@H]1O[C@@H](c2ccc3c(NC4CCCC4)nc(Cl)nn23)[C@H](O)[C@@H]1O)P(=O)(O)O [Example 31, ((S)-2-(((2R,3S,4R,5S)-5-(2-chloro-4-(cyclopentylamino)pyrrolo[2,1-f][1,2,4]triazin-7-yl)-3,4-dihydroxytetrahydrofuran-2-yl)methoxy)-1-methoxypropan-2-yl)phosphonic acid]",1 to 100
4,"COC[C@](C)(OC[C@H]1O[C@@H](c2ccc3c(NC4CCCC4)nc(Cl)nn23)[C@H](O)[C@@H]1O)P(=O)(O)O [Example 32, ((R)-2-(((2R,3S,4R,5S)-5-(2-chloro-4-(cyclopentylamino)pyrrolo[2,1-f][1,2,4]triazin-7-yl)-3,4-dihydroxytetrahydrofuran-2-yl)methoxy)-1-methoxypropan-2-yl)phosphonic acid]",≤ 0.5
5,"C[C@](CO)(OC[C@H]1O[C@@H](c2ccc3c(NC4CCCC4)nc(Cl)nn23)[C@H](O)[C@@H]1O)P(=O)(O)O [Example 33, ((S)-2-(((2R,3S,4R,5S)-5-(2-chloro-4-(cyclopentylamino)pyrrolo[2,1-f][1,2,4]triazin-7-yl)-3,4-dihydroxytetrahydrofuran-2-yl)methoxy)-1-hydroxypropan-2-yl)phosphonic acid]",1 to 100
6,"C[C@@](CO)(OC[C@H]1O[C@@H](c2ccc3c(NC4CCCC4)nc(Cl)nn23)[C@H](O)[C@@H]1O)P(=O)(O)O [Example 34, ((R)-2-(((2R,3S,4R,5S)-5-(2-chloro-4-(cyclopentylamino)pyrrolo[2,1-f][1,2,4]triazin-7-yl)-3,4-dihydroxytetrahydrofuran-2-yl)methoxy)-1-hydroxypropan-2-yl)phosphonic acid]",0.5 to 1
7,"C[C@@]1(c2ccc3c(NC4CCCC4)nc(Cl)nn23)O[C@H](CO[C@@](CO)(COCc2nn[nH]n2)P(=O)(O)O)[C@@H](O)[C@H]1O [Example 36, ((R)-1-((2H-tetrazol-5-yl)methoxy)-2-(((2R,3S,4R,5S)-5-(2-chloro-4-(cyclopentylamino)pyrrolo[2,1-f][1,2,4]triazin-7-yl)-3,4-dihydroxy-5-methyltetrahydrofuran-2-yl)methoxy)-3-hydroxypropan-2-yl)phosphonic acid]",100 to 1000
8,"O=P(O)(O)C(CO)(COCc1nnn[nH]1)OC[C@H]1O[C@@H](c2ccc3c(NCC4CCC4)nc(Cl)nn23)[C@H](O)[C@@H]1O (stereo partly drawn) [Example 39, (1-((1H-tetrazol-5-yl)methoxy)-2-(((2R,3S,4R,5S)-5-(2-chloro-4-((cyclobutylmethyl)amino)pyrrolo[2,1-f][1,2,4]triazin-7-yl)-3,4-dihydroxytetrahydrofuran-2-yl)methoxy)-3-hydroxypropan-2-yl)phosphonic acid]",≤ 0.5
9,"O=P(O)(O)[C@](CO)(COCc1nn[nH]n1)OC[C@H]1O[C@@H](c2ccc3c(N[C@@H]4CCc5ccccc54)nc(Cl)nn23)[C@H](O)[C@@H]1O [Example 40, ((R)-1-((2H-tetrazol-5-yl)methoxy)-2-(((2R,3S,4R,5S)-5-(2-chloro-4-(((R)-2,3-dihydro-1H-inden-l-yl)amino)pyrrolo[2,1-f][1,2,4]triazin-7-yl)-3,4-dihydroxytetrahydrofuran-2-yl)methoxy)-3-hydroxypropan-2-yl)phosphonic acid]",≤ 0.5
10,"O=P(O)(O)[C@@](CO)(COCc1nn[nH]n1)OC[C@H]1O[C@@H](c2ccc3c(N[C@@H]4CCc5ccccc54)nc(Cl)nn23)[C@H](O)[C@@H]1O [Example 41, ((S)-1-((2H-tetrazol-5-yl)methoxy)-2-(((2R,3S,4R,5S)-5-(2-chloro-4-(((R)-2,3-dihydro-1H-inden-l-yl)amino)pyrrolo[2,1-f][1,2,4]triazin-7-yl)-3,4-dihydroxytetrahydrofuran-2-yl)methoxy)-3-hydroxypropan-2-yl)phosphonic acid]",≤ 0.5
11,"COC[C@@](OC[C@H]1O[C@@H](c2ccc3c(NC4CCCC4)nc(Cl)nn23)[C@H](O)[C@@H]1O)(C(=O)O)P(=O)(O)O [Example 42, (S)-2-(((2R,3 S,4R,5S)-5-(2-chloro-4-(cyclopentylamino)pyrrolo[2,1-f][1,2,4]triazin-7-yl)-3,4-dihydroxytetrahydrofuran-2-yl)methoxy)-3-methoxy-2-phosphonopropanoic acid]",≤ 0.5
12,"O=P(O)(O)C(CO)(COCc1nnn[nH]1)OC[C@H]1O[C@H](c2cnn3c(NC4CCCC4)cc(Cl)nc23)[C@H](O)[C@@H]1O (stereo partly drawn) [Example 43, (1-((1H-tetrazol-5-yl)methoxy)-2-(((2R,3S,4R,5R)-5-(5-chloro-7-(cyclopentylamino)pyrazolo[1,5-a]pyrimidin-3-yl)-3,4-dihydroxytetrahydrofuran-2-yl)methoxy)-3-hydroxypropan-2-yl)phosphonic acid]",1 to 100

# Other lines, results leading:
row,IC50 [nM],SMILES
1,≤ 0.5,"COC[C@](COCC(=O)O)(OC[C@H]1O[C@@H](c2ccc3c(NC4CCCC4)nc(Cl)nn23)[C@H](O)[C@@H]1O)P(=O)(O)O [Example 25, 2-((S)-2-(((2R,3S,4R,5S)-5-(2-chloro-4-(cyclopentylamino)pyrrolo[2,1-f][1,2,4]triazin-7-yl)-3,4-dihydroxytetrahydrofuran-2-yl)methoxy)-3-methoxy-2-phosphonopropoxy)acetic acid]"
2,≤ 0.5,"CCOC(=O)COC[C@@](COC)(OC[C@H]1O[C@@H](c2ccc3c(NC4CCCC4)nc(Cl)nn23)[C@H](O)[C@@H]1O)P(=O)(O)O [Example 26, ((S)-2-(((2R,3S,4R,5S)-5-(2-chloro-4-(cyclopentylamino)pyrrolo[2,1-f][1,2,4]triazin-7-yl)-3,4-dihydroxytetrahydrofuran-2-yl)methoxy)-1-(2-ethoxy-2-oxoethoxy)-3-methoxypropan-2-yl)phosphonic acid]"
3,1 to 100,"O=P(O)(O)C(CO)(CO)OC[C@H]1O[C@@H](c2ccc3c(NCc4ccccc4Cl)nc(Cl)nn23)[C@H](O)[C@@H]1O [Example 27, (2-(((2R,3S,4R,5S)-5-(2-chloro-4-((2-chlorobenzyl)amino)pyrrolo[2,1-f][1,2,4]triazin-7-yl)-3,4-dihydroxytetrahydrofuran-2-yl)methoxy)-1,3-dihydroxypropan-2-yl)phosphonic acid]"
4,≤ 0.5,"O=P(O)(O)C(COCc1nnn[nH]1)(COCc1nnn[nH]1)OC[C@H]1O[C@@H](c2ccc3c(NC4CCCC4)nc(Cl)nn23)[C@H](O)[C@@H]1O [Example 28, (1,3-bis((1H-tetrazol-5-yl)methoxy)-2-(((2R,3S,4R,5S)-5-(2-chloro-4-(cyclopentylamino)pyrrolo[2,1-f][1,2,4]triazin-7-yl)-3,4-dihydroxytetrahydrofuran-2-yl)methoxy)propan-2-yl)phosphonic acid]"
5,≤ 0.5,"O=P(O)(O)[C@](COCc1nn[nH]n1)(COCC1CC1)OC[C@H]1O[C@@H](c2ccc3c(NC4CCCC4)nc(Cl)nn23)[C@H](O)[C@@H]1O [Example 35, ((S)-1-((2H-tetrazol-5-yl)methoxy)-2-(((2R,3S,4R,5S)-5-(2-chloro-4-(cyclopentylamino)pyrrolo[2,1-f][1,2,4]triazin-7-yl)-3,4-dihydroxytetrahydrofuran-2-yl)methoxy)-3-(cyclopropylmethoxy)propan-2-yl)phosphonic acid]"
6,100 to 1000,"C[C@@]1(c2ccc3c(NC4CCCC4)nc(Cl)nn23)O[C@H](CO[C@](CO)(COCc2nn[nH]n2)P(=O)(O)O)[C@@H](O)[C@H]1O [Example 37, ((S)-1-((2H-tetrazol-5-yl)methoxy)-2-(((2R,3S,4R,5S)-5-(2-chloro-4-(cyclopentylamino)pyrrolo[2,1-f][1,2,4]triazin-7-yl)-3,4-dihydroxy-5-methyltetrahydrofuran-2-yl)methoxy)-3-hydroxypropan-2-yl)phosphonic acid]"
7,≤ 0.5,O=P(O)(O)C(CO)(COCc1nnn[nH]1)OC[C@H]1O[C@@H](c2cnn3c(NC4CCCC4)cc(Cl)nc23)[C@H](O)[C@@H]1O (stereo partly shown) [Example 38]
